Measured values: patent US20100204263A1, “METHOD OF TREATING MULTIDRUG RESISTANT CANCERS” (priority 2007, published 2010)
pIC50: −log10 of the molar value. Like-named read-outs stand apart in the source and are kept apart here.

Columns and labels:
[1] = system: HL60 (human promyelocytic leukemia) cells; assay: WST-1 cell proliferation assay, HL60; assay type: cell-based
Description: (§1) The HL60NCR resistant cell line has been characterized with over-expression of the multidrug resistant protein (MDR; p-glycoprotein). The over-expression ratio (level of MDR in resistant cell line over level of MDR in the parental cell line) is 8 fold with a 10 fold increase in pgp function. Pgp surface expression was measured by flow cytometry with the MRK16 antibody and Pgp function with the generic substrate, Rh123.
(§2) WST-1 is a water-soluble tetrazolium salt that can be used for cell proliferation or cell viability assays. The rate of WST-1 cleavage by mitochondrial dehydrogenases correlates with the number of viable cells in the culture. WST-1 is added directly to the cells ( 1/10th of the culture volume) and absorbance at 450 nm can be measured using an ELISA plate reader following a short incubation at 37° C.

[2] = system: HL60/VCR (HL60/MDR), a cell line selected for resistance to vincristine; assay: WST-1 cell proliferation assay, HL60/VCR; settings: for pIC50: Homo sapiens, HL60/VCR, read-out: IC50 HL60/MDR; for Fold Change in IC50: HL60/MDR vs HL60
Description: as §1, §2

[3] = system: pretreatment secondary AML patient cells; assay: Amonafide and daunorubicin efflux in cryopreserved cells of patients treated with amonafide+cytarabine; assay type: cell-based, human; settings: cells from 15 patients treated with amonafide+cytarabine
Description: Cryopreserved cells were tested for viability and samples with viabilities less than 40% were considered inevaluable and discarded.
To measure drug uptake, the substrates were incubated with cells in medium containing each drug alone, or in combination with the modulator at the desired final concentrations. Cells were then washed and resuspended in PBS, and placed on ice. Drug-associated fluorescence was measured by flow cytometry using a FacScan flow cytometer (Becton Dickinson Immunocytometry Systems, San Jose, Calif.) equipped in standard fashion with an Argon laser for 488 nm excitation and a 585/42 band-pass filter (FL2) or a 670 long-pass (FL3) filter for emission collection. Data were analyzed with WinList software (Verity Software House, Topsham, Me.).

[4] = system: secondary AML patient sample cells; assay: Drug transport (CsA modulation of uptake) in secondary AML patient cells; assay type: cell-based, human; settings: for increase of uptake by Cyclosporin A, mean value: 22 secondary AML samples; for CsA Modulation of Uptake: D-value; for number of patient samples with uptake increased by ≧10% by Cyclosporin A: of 22 secondary AML samples
Description: The expression and function of Pgp, MRP-1 and BCRP was measured in cells collected from patients with secondary AML. Pgp, MRP-1 and BCRP expression was measured by flow cytometry with the MRK16, MRPm6 and BXP21 antibodies, and function by modulation of uptake of the fluorescent substrates DiOC2(3), rhodamine-123 and pheophorbide A by PSC-833, MK571 and FTC, respectively, all measured by the Kolmogorov-Smirnov statistic, generating D-values.

[5] = system: 8226/MR20, a cell line selected for resistance to mitoxantrone (BCRP); assay: WST-1 cell proliferation assay, 8226/MR20; settings: 8226/MR20 vs 8226
Description: The 8226/MR20 resistant cell line has been characterized with over-expression of the multidrug resistant protein (BCRP).
BCRP surface expression was measured by flow cytometry with the BXP21 antibody.
as §2

[6] = system: K562 cells (Pgp negative); assay: Functional efflux assay (DiOC2), K562; assay type: cell-based, human; settings: K562, flow cytometry
Description: The cells were washed with PBS and resuspended in medium. An aliquot was taken for cytometric quantitation of baseline dye uptake. The remaining samples were incubated again either with or without CSA and resuspended in fresh, chilled medium in order to assess dye efflux also by flow cytometric analysis. Functional expression analyses of Pgp were performed on a BD FACSCalibur flow cytometer (Franklin Lakes, N.J.). Cellular amonafide content was measured on the Cytopeia Influx flow cytometer (Seattle, Wash.). Data analysis was performed using the Dako Cytomation Summit software, version 4.0 (Fort Collins, Colo.). […] Differential Pgp staining of anti-Pgp treated cells was compared to that of control cells counted with the same number of gated events. […] These analyses were performed using the NCSS 2007 software (Kaysville, Utah). This approach addresses the maximum difference between two empirical distribution functions.

Pgp [7] = biological target: T1, Pgp (Homo sapiens, UniProt P08183); settings: human, Caco-2
T1 sequence (P08183 whole entry): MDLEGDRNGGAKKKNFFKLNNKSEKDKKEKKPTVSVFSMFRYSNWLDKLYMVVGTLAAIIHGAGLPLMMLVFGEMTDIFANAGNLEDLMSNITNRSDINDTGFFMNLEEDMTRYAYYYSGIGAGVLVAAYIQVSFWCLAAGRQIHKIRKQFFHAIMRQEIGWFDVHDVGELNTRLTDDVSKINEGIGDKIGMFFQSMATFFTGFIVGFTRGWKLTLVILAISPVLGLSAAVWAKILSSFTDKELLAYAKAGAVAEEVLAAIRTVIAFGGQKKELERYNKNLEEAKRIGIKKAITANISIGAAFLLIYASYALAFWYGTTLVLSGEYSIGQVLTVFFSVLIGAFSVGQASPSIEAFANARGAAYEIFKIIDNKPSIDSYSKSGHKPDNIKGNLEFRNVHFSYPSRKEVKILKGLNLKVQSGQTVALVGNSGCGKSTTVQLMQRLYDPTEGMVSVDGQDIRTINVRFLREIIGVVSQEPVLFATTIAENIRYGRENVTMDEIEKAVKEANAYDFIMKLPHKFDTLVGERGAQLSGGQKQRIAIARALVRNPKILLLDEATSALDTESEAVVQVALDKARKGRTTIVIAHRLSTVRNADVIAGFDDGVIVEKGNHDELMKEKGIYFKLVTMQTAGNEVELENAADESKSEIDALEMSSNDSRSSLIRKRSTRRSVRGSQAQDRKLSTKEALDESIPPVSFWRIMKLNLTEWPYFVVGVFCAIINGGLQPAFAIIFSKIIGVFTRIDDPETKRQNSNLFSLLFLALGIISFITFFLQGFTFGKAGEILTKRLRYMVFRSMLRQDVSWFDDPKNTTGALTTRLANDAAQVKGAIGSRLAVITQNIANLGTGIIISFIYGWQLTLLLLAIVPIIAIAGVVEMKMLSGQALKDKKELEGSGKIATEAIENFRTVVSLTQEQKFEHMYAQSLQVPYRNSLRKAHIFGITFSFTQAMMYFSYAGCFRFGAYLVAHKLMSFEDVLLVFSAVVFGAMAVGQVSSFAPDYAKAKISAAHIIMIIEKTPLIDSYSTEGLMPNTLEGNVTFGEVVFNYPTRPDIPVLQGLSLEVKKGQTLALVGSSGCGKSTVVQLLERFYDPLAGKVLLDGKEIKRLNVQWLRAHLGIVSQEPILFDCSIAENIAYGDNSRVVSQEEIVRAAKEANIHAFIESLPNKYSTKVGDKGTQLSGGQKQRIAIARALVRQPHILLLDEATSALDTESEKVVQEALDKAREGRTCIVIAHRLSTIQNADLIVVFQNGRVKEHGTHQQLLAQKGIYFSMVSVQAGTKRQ
Description: (§3) Both the Caco-2 and MDR1-MDCK cells were used for this model.

Pgp [8] = biological target: T1, Pgp; settings: human, MDCK-MDR1
Description: MDR1-MDCK are Madin Darby Canine Kidney cells transfected with the human multi-drug resistance gene. Confluent monolayers made from these cells can be used to access a test compound's potential role as a P-gp substrate. The assay set up is similar to the CaCo-2 assay.
as §3

[9] = system: IGROV1 (human ovarian) cell line; assay: SRB cell proliferation assay, IGROV1; assay type: cell-based; settings: read-out: IC50
Description: (§4) The T8 resistant cell line has been characterized with over-expression of the multidrug resistant protein BCRP (breast cancer resistance protein). Topotecan, which is a known substrate for BCRP, was used as a control.
(§5) Sulforhodamine-B (SRB) assay is performed to assess cell survival. SRB is a water-soluble dye that binds to the basic amino acids of the cellular proteins. Thus, colorimetric measurement of the bound dye provides an estimate of the total protein mass that is related to the cell number. The color can then be quantified using a simple colorimetric assay. The results can be read on a multiwell scanning spectrophotometer (ELISA reader).

[10] = system: IGROV1-T8, a cell line selected for resistance to topotecan (increased BCRP expression); settings: T8 resistant line vs IGROV1
Description: as §4, §5

[11] = system: IGROV1-T8, a cell line selected for resistance to topotecan (increased BCRP expression); assay: cells; settings: Homo sapiens, T8
Description: as §4, §5

[12] = HL-60, wild-type HL60, WST-1, read-out: IC50 HL60

Row | Molecule | pIC50 [2] | increase of uptake by Cyclosporin A, mean value [4] [%] | CsA Modulation of Uptake ([4]; Pt 1) | CsA Modulation of Uptake ([4]; Pt 2) | CsA Modulation of Uptake ([4]; Pt 3) | CsA Modulation of Uptake ([4]; Pt 4) | CsA Modulation of Uptake ([4]; Pt 5) | CsA Modulation of Uptake ([4]; Pt 6) | CsA Modulation of Uptake ([4]; Pt 7) | CsA Modulation of Uptake ([4]; Pt 8) | CsA Modulation of Uptake ([4]; Pt 9) | CsA Modulation of Uptake ([4]; Pt 10) | CsA Modulation of Uptake ([4]; Pt 11) | CsA Modulation of Uptake ([4]; Pt 12) | CsA Modulation of Uptake ([4]; Pt 13) | CsA Modulation of Uptake ([4]; Pt 14) | CsA Modulation of Uptake ([4]; Pt 15) | CsA Modulation of Uptake ([4]; Pt 16) | CsA Modulation of Uptake ([4]; Pt 17) | CsA Modulation of Uptake ([4]; Pt 18) | further results
1 | COc1cccc2c1C(=O)c1c(O)c3c(c(O)c1C2=O)C[C@@](O)(C(C)=O)C[C@@H]3O[C@H]1C[C@H](N)[C@H](O)[C@H](C)O1 [Daunorubicin, daunorubicin] | 7.04 | 19.7 | 0.2 | 0.14 | 0.27 | 0.23 | 0 | 0.41 | 0.47 | 0.31 | 0.08 | 0.08 | 0.03 | 0.37 | 0.16 | 0.29 | 0.07 | 0.08 | 0.24 | 0.03 | pIC50 ([1]; HL-60, read-out: IC50 HL60): 7.82; loss of potency in the Pgp+ line ([2]; HL60/VCR vs HL60): 2 log units; drug efflux in relation to clinical response (CR vs non-CR) [3]: negatively correlated with response; CsA Modulation of Uptake ([4]; Pt 19): 0.04; CsA Modulation of Uptake ([4]; Pt 20): 0.35; CsA Modulation of Uptake ([4]; Pt 21): 0.12; CsA Modulation of Uptake ([4]; Pt 22): 0.43; number of patient samples with uptake increased by ≧10% by Cyclosporin A [4]: 16 patient samples; loss of potency in the BCRP line [5]: ½
2 | CCN1/C(=C/C=C/c2oc3ccccc3[n+]2CC)Oc2ccccc21.[I-] [DiOC2] |  |  |  |  |  |  |  |  |  |  |  |  |  |  |  |  |  |  |  |  | DiOC2 accumulation [6]: accumulated in Pgp negative K562 cells
3 | C[C@H]1O[C@@H](O[C@H]2[C@@H](O)C[C@H](O[C@H]3[C@@H](O)C[C@H](O[C@H]4CC[C@@]5(C)[C@H](CC[C@@H]6[C@@H]5C[C@@H](O)[C@]5(C)[C@@H](C7=CC(=O)OC7)CC[C@]65O)C4)O[C@@H]3C)O[C@@H]2C)C[C@H](O)[C@@H]1O [Digoxin, digoxin] |  |  |  |  |  |  |  |  |  |  |  |  |  |  |  |  |  |  |  |  | Digoxin Efflux (efflux/influx ratio), Caco-2 (Pgp [7]): 10.6 ± 1.4; Digoxin Efflux (efflux/influx ratio), MDR1-MDCK (Pgp [8]): 70 + 11
4 | COc1cccc2c1C(=O)c1c(O)c3c(c(O)c1C2=O)C[C@@](O)(C(=O)CO)C[C@@H]3O[C@H]1C[C@H](N)[C@H](O)[C@H](C)O1 [Doxorubicin, doxorubicin] | 6.79 |  |  |  |  |  |  |  |  |  |  |  |  |  |  |  |  |  |  |  | pIC50 [1, 12]: 7.48; Fold Change in IC50 [2]: 4.87
5 | CC(=O)[C@]1(O)Cc2c(O)c3c(c(O)c2[C@@H](O[C@H]2C[C@H](N)[C@H](O)[C@H](C)O2)C1)C(=O)c1ccccc1C3=O [Idarubicin, idarubicin] |  | 7 | 0 | 0.23 | 0.22 | 0.17 | 0 | 0.21 | 0.21 | 0.16 | 0.18 | 0.02 | 0.05 | 0.08 | 0.06 | 0.28 | 0.16 | 0.03 | 0 | 0 | CsA Modulation of Uptake ([4]; Pt 19): 0.17; CsA Modulation of Uptake ([4]; Pt 20): 0.23; CsA Modulation of Uptake ([4]; Pt 21): 0.19; CsA Modulation of Uptake ([4]; Pt 22): 0.31; number of patient samples with uptake increased by ≧10% by Cyclosporin A [4]: 12 patient samples
6 | O=C1c2c(O)ccc(O)c2C(=O)c2c(NCCNCCO)ccc(NCCNCCO)c21 [Mitoxantrone, mitoxantrone] | 5.51 |  |  |  |  |  |  |  |  |  |  |  |  |  |  |  |  |  |  |  | pIC50 [1, 12]: 8.10; Fold Change in IC50 [2]: 390.7
7 | CO[C@@H]1[C@H](N(C)C(=O)c2ccccc2)C[C@H]2O[C@]1(C)n1c3ccccc3c3c4c(c5c6ccccc6n2c5c31)C(=O)NC4 [PKC412] |  |  |  |  |  |  |  |  |  |  |  |  |  |  |  |  |  |  |  |  | Digoxin Efflux (efflux/influx ratio), Caco-2 (Pgp [7]): 1.8 ± 1.3; Digoxin Efflux (efflux/influx ratio), MDR1-MDCK (Pgp [8]): 6.4 ± 0.8
8 | CC[C@@]1(O)C(=O)OCc2c1cc1n(c2=O)Cc2cc3c(CN(C)C)c(O)ccc3nc2-1 [TPT, Topotecan] |  |  |  |  |  |  |  |  |  |  |  |  |  |  |  |  |  |  |  |  | pIC50 ([9]; IGROV-1, IGROV1, experiment (1)): 7.44; pIC50 ([9]; IGROV-1, IGROV1, experiment (2)): 7.13; resistance of T8 line to Topotecan relative to Amonafide [10]: 10 fold; pIC50 ([11]; experiment (1)): 5.96; pIC50 ([11]; experiment (2)): 5.96
9 | amonafide L-malate |  | −2.5 | 0 | 0.09 | 0 | 0.02 | 0 | 0.1 | 0.31 | 0.07 | 0 | 0.18 | 0 | 0 | 0.03 | 0.05 | 0 | 0 | 0 | 0 | CsA Modulation of Uptake ([4]; Pt 19): 0; CsA Modulation of Uptake ([4]; Pt 20): 0.15; CsA Modulation of Uptake ([4]; Pt 21): 0.43; CsA Modulation of Uptake ([4]; Pt 22): 0; substrate status for the MDR proteins expressed in AML cells ([4]; in relation to other topoisomerase 2 inhibitors): poor substrate; number of patient samples with uptake increased by ≧10% by Cyclosporin A [4]: 5 patient samples
